Data: ChEMBL document CHEMBL1137656, “Effects of serum on in vitro susceptibility testing of echinocandins” (Antimicrob Agents Chemother, 2007)
Numbered stars: 1 amine (or outer) side, 2 acyl side, 3 side chain; on linkers, the order of the positions; unused ones are H or OH. Bridge positions count the residues as written; N and C are the ends. Square brackets hold non-standard residues; d marks the D form. Peptide text beside a SMILES is read from it. * marks the point of attachment. hTyr(3S-OH,4S-OH,3'-OSO3H) = N[C@H](C(=O)O)[C@H](O)[C@@H](O)c1ccc(O)c(OS(=O)(=O)O)c1; Orn(4R-OH,5R-OH) = O=C([C@H](C[C@@H](O)[C@@H](O)N[*:3])N[*:1])[*:2]; Pro(3S-OH,4S-Me) = C[C@H]1CN[C@H](C(=O)O)[C@H]1O; X1 = CCCCCOc1ccc(-c2cc(-c3ccc(C(=O)*)cc3)no2)cc1; Gln(3R-OH) = NC(=O)C[C@@H](O)[C@H](N)C(=O)O; Hyp = O=C(O)[C@@H]1C[C@@H](O)CN1

Columns and labels:
Format in all cases: functional
Aspergillus flavus [1] = assay: Ratio of MIC50 for Aspergillus flavus isolate 0001-033 in presence of 50% human serum to MIC50 for Aspergillus flavus isolate 0001-033 in presence of RPMI 1640 medium
Aspergillus flavus [2] = assay: Antifungal activity against Aspergillus flavus isolate 0001-061 after 24 hrs by CLSI M38-A broth microdilution method in presence of RPMI 1640 medium; conditions: isolate 0001-061, 24 h
Aspergillus flavus [3] = assay: Antifungal activity against Aspergillus flavus isolate 0001-061 after 24 hrs by CLSI M38-A broth microdilution method in presence of 50% human serum; conditions: isolate 0001-061, 24 h
Nakaseomyces glabratus [4] = assay: Ratio of MIC50 for Candida glabrata isolate 0049-038 in presence of 50% human serum to MIC50 for Candida glabrata isolate 0049-038 in presence of RPMI 1640 medium
Pichia kudriavzevii [5] = assay: Antifungal activity against Candida krusei isolate 0001-058 after 24 hrs by CLSI M27-A2 broth microdilution method in presence of RPMI 1640 medium; conditions: isolate 0001-058, 24 h
Pichia kudriavzevii [6] = assay: Antifungal activity against Candida krusei isolate 0001-058 after 24 hrs by CLSI M27-A2 broth microdilution method in presence of 50% human serum; conditions: isolate 0001-058, 24 h
Pichia kudriavzevii [7] = assay: Ratio of MIC50 for Candida krusei isolate 0001-058 in presence of 50% human serum to MIC50 for Candida krusei isolate 0001-058 in presence of RPMI 1640 medium
Pichia kudriavzevii [8] = assay: Antifungal activity against Candida krusei isolate 0013-054 after 24 hrs by CLSI M27-A2 broth microdilution method in presence of RPMI 1640 medium; conditions: isolate 0013-054, 24 h
Pichia kudriavzevii [9] = assay: Antifungal activity against Candida krusei ATCC 6258 after 24 hrs by CLSI M27-A2 broth microdilution method in presence of 50% human serum; conditions: ATCC 6258, 24 h
Pichia kudriavzevii [10] = assay: Ratio of MIC50 for Candida krusei ATCC 6258 in presence of 50% human serum to MIC50 for Candida krusei ATCC 6258 in presence of RPMI 1640 medium
Candida albicans [11] = assay: Antifungal activity against Candida albicans isolate 0012-025 after 24 hrs by CLSI M27-A2 broth microdilution method in presence of RPMI 1640 medium; conditions: isolate 0012-025, 24 h
Candida albicans [12] = assay: Antifungal activity against Candida albicans isolate 0012-025 after 24 hrs by CLSI M27-A2 broth microdilution method in presence of 50% human serum; conditions: isolate 0012-025, 24 h
Candida albicans [13] = assay: Antifungal activity against Candida albicans isolate 0021-076 after 24 hrs by CLSI M27-A2 broth microdilution method in presence of RPMI 1640 medium; conditions: isolate 0021-076, 24 h
Candida albicans [14] = assay: Antifungal activity against Candida albicans isolate 0021-076 after 24 hrs by CLSI M27-A2 broth microdilution method in presence of 50% human serum; conditions: isolate 0021-076, 24 h
Clavispora lusitaniae [15] = assay: Ratio of MIC50 for Candida lusitaniae isolate 0013-002 in presence of 50% human serum to MIC50 for Candida lusitaniae isolate 0013-002 in presence of RPMI 1640 medium
Clavispora lusitaniae [16] = assay: Antifungal activity against Candida lusitaniae isolate 0015-049 after 24 hrs by CLSI M27-A2 broth microdilution method in presence of RPMI 1640 medium; conditions: isolate 0015-049, 24 h
Clavispora lusitaniae [17] = assay: Ratio of MIC50 for Candida lusitaniae isolate 0015-049 in presence of 50% human serum to MIC50 for Candida lusitaniae isolate 0015-049 in presence of RPMI 1640 medium
Candida parapsilosis [18] = assay: Ratio of MIC50 for Candida parapsilosis isolate 0014-074 in presence of 50% human serum to MIC50 for Candida parapsilosis isolate 0014-074 in presence of RPMI 1640 medium
Candida parapsilosis [19] = assay: Ratio of MIC50 for Candida parapsilosis isolate 0011-013 in presence of 50% human serum to MIC50 for Candida parapsilosis isolate 0011-013 in presence of RPMI 1640 medium
Candida parapsilosis [20] = assay: Antifungal activity against Candida parapsilosis isolate 0036-030 after 24 hrs by CLSI M27-A2 broth microdilution method in presence of RPMI 1640 medium; conditions: Lodderomyces parapsilosis, isolate 0036-030, 24 h
Candida parapsilosis [21] = assay: Ratio of MIC50 for Candida parapsilosis isolate 0036-030 in presence of 50% human serum to MIC50 for Candida parapsilosis isolate 0036-030 in presence of RPMI 1640 medium
Candida parapsilosis [22] = assay: Antifungal activity against Candida parapsilosis ATCC 22019 after 24 hrs by CLSI M27-A2 broth microdilution method in presence of RPMI 1640 medium; conditions: Lodderomyces parapsilosis, ATCC 22019, 24 h
Nakaseomyces glabratus [23] = assay: Antifungal activity against Candida glabrata isolate 0022-012 after 24 hrs by CLSI M27-A2 broth microdilution method in presence of 50% human serum; conditions: isolate 0022-012, 24 h
Candida tropicalis [24] = assay: Antifungal activity against Candida tropicalis isolate 0022-021 after 24 hrs by CLSI M27-A2 broth microdilution method in presence of RPMI 1640 medium; conditions: isolate 0022-021, 24 h
Candida tropicalis [25] = assay: Antifungal activity against Candida tropicalis isolate 0050-028 after 24 hrs by CLSI M27-A2 broth microdilution method in presence of RPMI 1640 medium; conditions: isolate 0050-028, 24 h
Candida tropicalis [26] = assay: Antifungal activity against Candida tropicalis isolate 0050-028 after 24 hrs by CLSI M27-A2 broth microdilution method in presence of 50% human serum; conditions: isolate 0050-028, 24 h
Aspergillus terreus [27] = assay: Antifungal activity against Aspergillus terreus isolate 0031-087 after 48 hrs by CLSI M38-A broth microdilution method in presence of RPMI 1640 medium; conditions: isolate 0031-087, 48 h
Aspergillus terreus [28] = assay: Antifungal activity against Aspergillus terreus isolate 0031-087 after 48 hrs by CLSI M38-A broth microdilution method in presence of 50% human serum; conditions: isolate 0031-087, 48 h
Aspergillus fumigatus [29] = assay: Antifungal activity against Aspergillus fumigatus isolate 0002-0016 after 24 hrs by CLSI M38-A broth microdilution method in presence of 50% human serum; conditions: isolate 0002-0016, 24 h
Aspergillus fumigatus [30] = assay: Antifungal activity against Aspergillus fumigatus isolate 0020-018 after 24 hrs by CLSI M38-A broth microdilution method in presence of 50% human serum; conditions: isolate 0020-018, 24 h
Aspergillus fumigatus [31] = assay: Ratio of MIC50 for Aspergillus fumigatus isolate 0002-020 in presence of 50% human serum to MIC50 for Aspergillus fumigatus isolate 0002-020 in presence of RPMI 1640 medium
Aspergillus fumigatus [32] = assay: Antifungal activity against Aspergillus fumigatus isolate 0002-021 after 24 hrs by CLSI M38-A broth microdilution method in presence of RPMI 1640 medium; conditions: isolate 0002-021, 24 h
Aspergillus fumigatus [33] = assay: Antifungal activity against Aspergillus fumigatus isolate 0002-021 after 24 hrs by CLSI M38-A broth microdilution method in presence of 50% human serum; conditions: isolate 0002-021, 24 h

CC[C@H](C)C[C@H](C)CCCCCCCCC(=O)N[C@H]1C[C@@H](O)[C@@H](NCCN)NC(=O)[C@@H]2[C@@H](O)CCN2C(=O)[C@H]([C@H](O)CCN)NC(=O)[C@H]([C@H](O)[C@@H](O)c2ccc(O)cc2)NC(=O)[C@@H]2C[C@@H](O)CN2C(=O)[C@H]([C@@H](C)O)NC1=O [CASPOFUNGIN] showed a Ratio (Aspergillus flavus [1]) of 4, an MIC50 (Aspergillus flavus [2]) of 128 µg/mL and an MIC50 (Aspergillus flavus [3]) of 128 µg/mL. It also gave a Ratio (Nakaseomyces glabratus [4]) of 1, an MIC50 (Pichia kudriavzevii [5]) of 0.5 µg/mL and an MIC50 (Pichia kudriavzevii [6]) of 0.5 µg/mL. For the same molecule, the Ratio (Pichia kudriavzevii [7]) was 1, the MIC50 (Pichia kudriavzevii [8]) was 0.5 µg/mL and the MIC50 (Pichia kudriavzevii [9]) was 4 µg/mL. For the same molecule, the Ratio (Pichia kudriavzevii [10]) was 8, the MIC50 (Candida albicans [11]) was 0.25 µg/mL and the MIC50 (Candida albicans [12]) was 0.25 µg/mL. It also gave an MIC50 (Candida albicans [13]) of 0.5 µg/mL, an MIC50 (Candida albicans [14]) of 4 µg/mL and a Ratio (Clavispora lusitaniae [15]) of 1. It also gave an MIC50 (Clavispora lusitaniae [16]) of 0.5 µg/mL, a Ratio (Clavispora lusitaniae [17]) of 2 and a Ratio (Candida parapsilosis [18]) of 2. For the same molecule, the Ratio (Candida parapsilosis [19]) was 4, the MIC50 (Candida parapsilosis [20]) was 1 µg/mL and the Ratio (Candida parapsilosis [21]) was 8. It also gave an MIC50 (Candida parapsilosis [22]) of 0.5 µg/mL, an MIC50 (Nakaseomyces glabratus [23]) of 0.5 µg/mL and an MIC50 (Candida tropicalis [24]) of 0.5 µg/mL. The MIC50 (Candida tropicalis [25]) was 0.5 µg/mL, the MIC50 (Candida tropicalis [26]) was 2 µg/mL and the MIC50 (Aspergillus terreus [27]) was 0.5 µg/mL. For the same molecule, the MIC50 (Aspergillus terreus [28]) was 0.5 µg/mL, the MIC50 (Aspergillus fumigatus [29]) was 128 µg/mL and the MIC50 (Aspergillus fumigatus [30]) was 128 µg/mL. For the same molecule, the Ratio (Aspergillus fumigatus [31]) was 256, the MIC50 (Aspergillus fumigatus [32]) was 1 µg/mL and the MIC50 (Aspergillus fumigatus [33]) was 128 µg/mL.
In the case of CCCCCOc1ccc(-c2cc(-c3ccc(C(=O)N[C@H]4C[C@@H](O)[C@@H](O)NC(=O)[C@@H]5[C@@H](O)[C@@H](C)CN5C(=O)[C@H]([C@H](O)CC(N)=O)NC(=O)[C@H]([C@H](O)[C@@H](O)c5ccc(O)c(OS(=O)(=O)O)c5)NC(=O)[C@@H]5C[C@@H](O)CN5C(=O)[C@H]([C@@H](C)O)NC4=O)cc3)no2)cc1 [MICAFUNGIN] (X1-[Orn(4R-OH,5R-OH)]T[Hyp][hTyr(3S-OH,4S-OH,3'-OSO3H)][Gln(3R-OH)][Pro(3S-OH,4S-Me)]; lactam 1-C), the Ratio (Aspergillus flavus [1]) is reported as 1024, the MIC50 (Aspergillus flavus [2]) is reported as 0.125 µg/mL and the MIC50 (Aspergillus flavus [3]) is reported as 128 µg/mL. For the same molecule, the Ratio (Nakaseomyces glabratus [4]) was 256, the MIC50 (Pichia kudriavzevii [5]) was 0.0625 µg/mL and the MIC50 (Pichia kudriavzevii [6]) was 2 µg/mL. For the same molecule, the Ratio (Pichia kudriavzevii [7]) was 32, the MIC50 (Pichia kudriavzevii [8]) was 0.125 µg/mL and the MIC50 (Pichia kudriavzevii [9]) was 8 µg/mL. For the same molecule, the Ratio (Pichia kudriavzevii [10]) was 128, the MIC50 (Candida albicans [11]) was 0.0156 µg/mL and the MIC50 (Candida albicans [12]) was 1 µg/mL. The MIC50 (Candida albicans [13]) was 0.5 µg/mL, the MIC50 (Candida albicans [14]) was 64 µg/mL and the Ratio (Clavispora lusitaniae [15]) was 128. It also gave an MIC50 (Clavispora lusitaniae [16]) of 0.0156 µg/mL, a Ratio (Clavispora lusitaniae [17]) of 256 and a Ratio (Candida parapsilosis [18]) of 32. For the same molecule, the Ratio (Candida parapsilosis [19]) was 256, the MIC50 (Candida parapsilosis [20]) was 0.5 µg/mL and the Ratio (Candida parapsilosis [21]) was 256. The MIC50 (Candida parapsilosis [22]) was 0.5 µg/mL, the MIC50 (Nakaseomyces glabratus [23]) was 1 µg/mL and the MIC50 (Candida tropicalis [24]) was 0.0156 µg/mL. It also gave an MIC50 (Candida tropicalis [25]) of 0.25 µg/mL, an MIC50 (Candida tropicalis [26]) of 32 µg/mL and an MIC50 (Aspergillus terreus [27]) of 0.002 µg/mL. The MIC50 (Aspergillus terreus [28]) was 0.25 µg/mL, the MIC50 (Aspergillus fumigatus [29]) was 2 µg/mL and the MIC50 (Aspergillus fumigatus [30]) was 0.5 µg/mL. For the same molecule, the Ratio (Aspergillus fumigatus [31]) was 128, the MIC50 (Aspergillus fumigatus [32]) was 0.001 µg/mL and the MIC50 (Aspergillus fumigatus [33]) was 1 µg/mL.
